Earlier results, collected in US20070044813A1, “Use of snuff for treatment of house dust mite allergy and/or cigarette smoke allergy” (priority 2005, published 2007).
Structures can show the parent of a compound that is named as a salt.

System: symptoms of house dust mite allergy and cigarette smoke allergy
Conditions: conventional medicaments; control the symptoms only partly

Row | SMILES | alleviation of the symptoms
1 | CC(C)(C(=O)O)c1ccc(C(O)CCCN2CCC(C(O)(c3ccccc3)c3ccccc3)CC2)cc1 (centres unmarked) [fexofenadine hydrochloride] | around 40%
2 | Clc1ccc2c(c1)CCc1cccnc1C2=C1CCNCC1 [desloratadine] | around 40%
